Test results: ChEMBL document CHEMBL4052776, “Discovery of 3-morpholino-imidazole[1,5-a]pyrazine BTK inhibitors for rheumatoid arthritis” (Bioorg Med Chem Lett, 2017)
pIC50: −log10 of the molar value.

Target: Voltage-gated inwardly rectifying potassium channel KCNH2 (Homo sapiens, UniProt Q12809)
Experiment: Inhibition of human ERG by [35S]-MK499 displacement or iKr channel assay

Voltage-gated inwardly rectifying potassium channel KCNH2, sequence (Q12809 whole entry): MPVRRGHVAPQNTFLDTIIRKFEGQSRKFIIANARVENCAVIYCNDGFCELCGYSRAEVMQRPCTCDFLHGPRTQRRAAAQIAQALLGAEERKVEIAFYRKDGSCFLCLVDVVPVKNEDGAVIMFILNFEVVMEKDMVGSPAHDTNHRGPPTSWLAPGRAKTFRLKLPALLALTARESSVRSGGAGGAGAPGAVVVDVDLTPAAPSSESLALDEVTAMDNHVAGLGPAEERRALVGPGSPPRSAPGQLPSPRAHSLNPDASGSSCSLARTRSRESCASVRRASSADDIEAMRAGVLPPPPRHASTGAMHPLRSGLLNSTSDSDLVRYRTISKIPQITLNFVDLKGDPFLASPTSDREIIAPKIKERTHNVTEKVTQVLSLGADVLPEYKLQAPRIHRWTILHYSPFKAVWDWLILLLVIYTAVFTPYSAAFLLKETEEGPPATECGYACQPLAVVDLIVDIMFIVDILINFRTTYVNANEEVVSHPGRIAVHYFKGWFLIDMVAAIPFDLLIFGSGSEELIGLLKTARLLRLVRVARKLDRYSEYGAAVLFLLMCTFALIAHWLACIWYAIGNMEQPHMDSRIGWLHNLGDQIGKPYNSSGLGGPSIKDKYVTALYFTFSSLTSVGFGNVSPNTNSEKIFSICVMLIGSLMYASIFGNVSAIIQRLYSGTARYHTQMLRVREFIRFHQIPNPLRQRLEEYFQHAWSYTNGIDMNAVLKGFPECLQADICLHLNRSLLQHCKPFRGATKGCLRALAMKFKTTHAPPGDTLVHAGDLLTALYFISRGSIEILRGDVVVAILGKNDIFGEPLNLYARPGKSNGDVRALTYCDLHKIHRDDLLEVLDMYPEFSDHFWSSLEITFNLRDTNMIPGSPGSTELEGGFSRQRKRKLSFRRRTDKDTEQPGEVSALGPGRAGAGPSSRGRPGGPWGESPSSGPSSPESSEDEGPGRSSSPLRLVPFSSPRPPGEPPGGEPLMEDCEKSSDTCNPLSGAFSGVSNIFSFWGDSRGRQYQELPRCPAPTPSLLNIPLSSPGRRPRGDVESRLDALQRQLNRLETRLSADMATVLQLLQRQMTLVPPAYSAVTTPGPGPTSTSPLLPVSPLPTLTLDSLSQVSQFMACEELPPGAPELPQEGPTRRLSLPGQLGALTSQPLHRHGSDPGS

**Q.** `CC1(C(=O)N2CCO[C@@H](c3nc(-c4ccc(C(=O)Nc5cc(C(F)(F)F)ccn5)cc4)c4c(N)nccn34)C2)COC1` was tested. Which pIC50 did it give?
**A.** 4.84

**Q.** How did the pIC50 turn out when `CC1(C(=O)N2CC[C@@H](c3nc(-c4ccc(C(=O)Nc5cc(C(F)(F)F)ccn5)cc4)c4c(N)nccn34)C2)COC1` was run?
**A.** 5.60

**Q.** `CC1(C(=O)N2CCO[C@@H](c3nc(-c4ccc(C(=O)Nc5cc(C(F)(F)F)ccn5)cc4F)c4c(N)nccn34)C2)CCC1` was tested. Which pIC50 did it give?
**A.** 4.85

**Q.** `CC1(C(=O)N2CC(c3nc(-c4ccc(C(=O)Nc5cc(C(F)(F)F)ccn5)cc4)c4c(N)nccn34)C2)COC1` was tested. Which pIC50 did it give?
**A.** 6.40

**Q.** How did the pIC50 turn out when `CC(=O)N1CCC[C@@H](c2nc(-c3ccc(C(=O)Nc4cc(C(F)(F)F)ccn4)cc3F)c3c(N)nccn23)C1` was run?
**A.** 5.62

**Q.** With `COCCC(=O)N1CCSC(c2nc(-c3ccc(C(=O)Nc4cc(C(F)(F)F)ccn4)cc3)c3c(N)nccn23)C1` (configuration not stated) as the molecule, how does the pIC50 read?
**A.** 5.74

**Q.** How did the pIC50 turn out when `COCCC(=O)N1CCO[C@@H](c2nc(-c3ccc(C(=O)Nc4cc(C(F)(F)F)ccn4)cc3)c3c(N)nccn23)C1` was run?
**A.** 5.24
